We go through 16 compounds from patent US20180186814A1, “TRICYCLIC COMPOUND HAVING SULFINYL OR SULFONYL” (Shionogi & Co., Ltd., priority 2015, published 2018).

Structures are written as SMILES. ≈ marks a conversion by molar mass, not a printed value.

Common to all, as to assay type: cell-based
The subject of one experiment is K. pneumoniae NCTC13443. Put plainly: MIC by microbroth dilution (CLSI), strain No. 4. The settings on record: K. pneumoniae NCTC13443, NDM-1, MBL-producing strain, carbapenem-resistant, cation-adjusted Mueller-Hinton broth; for MIC: Klebsiella pneumoniae, read-out: minimum inhibitory concentration (MIC), Strain No. 4. How it is done: (§1) The minimum inhibitory concentration (MIC) was measured by the microbroth dilution method in accordance with the procedures recommended by CLSI (Clinical and Laboratory Standards Institute) using 1×10^5 CFU/mL as an inoculum dose and a cation-adjusted Mueller-Hinton broth as a test medium.
(§2) The strains used are as described in the table below.

The test system of the next experiment is K. pneumoniae SR01358. Description: MIC by microbroth dilution (CLSI), strain No. 2. Particulars: K. pneumoniae SR01358, KPC-2, KPC-producing strain, cation-adjusted Mueller-Hinton broth; for MIC: Klebsiella pneumoniae, read-out: minimum inhibitory concentration (MIC), Strain No. 2. On the procedure: as §1, §2
Another experiment concerns E. cloacae SR36276. Put plainly: MIC by microbroth dilution (CLSI), strain No. 5. Particulars: E. cloacae SR36276, AmpC, highly AmpC-producing strain, ceftazidime-resistant, cefepime-sensitive, cation-adjusted Mueller-Hinton broth; for MIC: Enterobacter cloacae, read-out: minimum inhibitory concentration (MIC), Strain No. 5. How it is done:
as §1, §2
A general note: Dilution methods test growth across graded concentrations, often in twofold steps.

The subject of another experiment is E. cloacae ATCC13047. Description: MIC by microbroth dilution (CLSI), strain No. 1. The settings on record: E. cloacae ATCC13047, AmpC, ceftazidime-resistant, cefepime-sensitive, cation-adjusted Mueller-Hinton broth; for MIC: Enterobacter cloacae, read-out: minimum inhibitory concentration (MIC), Strain No. 1. How it is done:
as §1, §2

A further experiment has as its system K. pneumoniae SR01453. Description: MIC by microbroth dilution (CLSI), strain No. 3. The settings on record: K. pneumoniae SR01453, NDM-1, MBL-producing strain, carbapenem-resistant, cation-adjusted Mueller-Hinton broth; for MIC: Klebsiella pneumoniae, read-out: minimum inhibitory concentration (MIC), Strain No. 3. On the procedure: as §1, §2
The subject of a further experiment is E. coli SR09613. Description: MIC by microbroth dilution (CLSI), strain No. 6. Particulars: for MIC: Escherichia coli, SR09613, read-out: minimum inhibitory concentration (MIC), Strain No. 6; for minimum inhibitory concentration (MIC), Strain No. 6: E. coli SR09613, CMY-2 type, plasmid AmpC-producing strain, ceftazidime-resistant, cefepime-sensitive, cation-adjusted Mueller-Hinton broth. On the procedure:
as §1, §2

The subject of another experiment is E. coli SR09616. Description: MIC by microbroth dilution (CLSI), strain No. 7. The settings on record: for MIC: Escherichia coli, SR09616, read-out: minimum inhibitory concentration (MIC), Strain No. 7; for minimum inhibitory concentration (MIC), Strain No. 7: E. coli SR09616, CMY-2 type, plasmid AmpC-producing strain, ceftazidime-resistant, cefepime-sensitive, cation-adjusted Mueller-Hinton broth. On the procedure: as §1, §2

As to `Nc1nc(/C(=N/OC(F)C(=O)O)C(=O)N[C@@H]2C(=O)N3[C@@H]2[S@@+]([O-])C[C@@H]2CC(=O)O[C@@]23C(=O)O)cs1` (stereo partly drawn) [Compound I-037], the MIC amounted to 8 µg/mL (≈ 15.4 µM) in the experiment with K. pneumoniae NCTC13443; 1 µg/mL (≈ 1.93 µM) in the experiment on K. pneumoniae SR01358; 0.5 µg/mL (≈ 0.963 µM) in the experiment with E. cloacae SR36276; 0.5 µg/mL (≈ 0.963 µM) with E. cloacae ATCC13047; 0.25 µg/mL (≈ 0.481 µM) with K. pneumoniae SR01453.

Regarding `N#CCO/N=C(\C(=O)N[C@@H]1C(=O)N2[C@@H]1[S@@+]([O-])C[C@@H]1CC(=O)O[C@@]12C(=O)O)c1csc(N)n1` [Compound I-039], the MIC in the experiment with E. coli SR09613 amounted to 0.25 µg/mL (≈ 0.518 µM); in the experiment on K. pneumoniae NCTC13443 it was 4 µg/mL (≈ 8.29 µM); in the experiment on E. cloacae SR36276, 2 µg/mL (≈ 4.15 µM); in the experiment on E. cloacae ATCC13047, 0.5 µg/mL (≈ 1.04 µM); in the experiment on K. pneumoniae SR01453 it was 0.125 µg/mL (≈ 0.259 µM); in the experiment on E. coli SR09616, 1 µg/mL (≈ 2.07 µM).

As to `C[n+]1ccc(CO/N=C(\C(=O)N[C@@H]2C(=O)N3[C@@H]2[S@@+]([O-])C[C@@H]2CC(=O)O[C@@]23C(=O)[O-])c2csc(N)n2)cc1` [Compound I-041], the MIC in the experiment with E. coli SR09613 was 0.5 µg/mL (≈ 0.911 µM); in the experiment with E. cloacae ATCC13047, 1 µg/mL (≈ 1.82 µM); in the experiment with K. pneumoniae SR01453, 0.5 µg/mL (≈ 0.911 µM); with E. coli SR09616 it was 2 µg/mL (≈ 3.65 µM).

Consider `Nc1nc(/C(=N/OCc2cccnc2)C(=O)N[C@@H]2C(=O)N3[C@@H]2[S@@+]([O-])C[C@@H]2CC(=O)O[C@@]23C(=O)O)cs1` [Compound I-042], for which the MIC with E. coli SR09613 turned out to be 4 µg/mL (≈ 7.48 µM); in the experiment with K. pneumoniae SR01453, 2 µg/mL (≈ 3.74 µM); in the experiment on E. coli SR09616, 4 µg/mL (≈ 7.48 µM).

Take `Nc1nc(/C(=N/OC[C@@H](O)CO)C(=O)N[C@@H]2C(=O)N3[C@@H]2[S@@+]([O-])C[C@@H]2CC(=O)O[C@@]23C(=O)O)cs1` [Compound I-044]: the MIC in the experiment with E. coli SR09613 was 0.25 µg/mL (≈ 0.483 µM); in the experiment with K. pneumoniae NCTC13443, 2 µg/mL (≈ 3.86 µM); in the experiment on E. cloacae SR36276 it was 1 µg/mL (≈ 1.93 µM); in the experiment on E. cloacae ATCC13047, 0.5 µg/mL (≈ 0.966 µM); with K. pneumoniae SR01453, 1 µg/mL (≈ 1.93 µM); in the experiment with E. coli SR09616, 1 µg/mL (≈ 1.93 µM).

Regarding `Nc1nc(/C(=N/OCS(=O)(=O)O)C(=O)N[C@@H]2C(=O)N3[C@@H]2[S@@+](O)C[C@@H]2CC(=O)O[C@@]23C(=O)O)cs1` [Compound I-047], the “minimum inhibitory concentration (MIC), Strain No. 6” value in the experiment with E. coli SR09613 was determined as 0.063 µg/mL. In addition, the “minimum inhibitory concentration (MIC), Strain No. 4” value with K. pneumoniae NCTC13443 came to 2 µg/mL. Further, the “minimum inhibitory concentration (MIC), Strain No. 5” value in the experiment on E. cloacae SR36276 amounted to 0.25 µg/mL. For the same compound, the “minimum inhibitory concentration (MIC), Strain No. 1” value in the experiment on E. cloacae ATCC13047 stood at 0.25 µg/mL. Moreover, in the experiment on K. pneumoniae SR01453, the “minimum inhibitory concentration (MIC), Strain No. 3” value is 0.25 µg/mL. Further, in the experiment with E. coli SR09616, the “minimum inhibitory concentration (MIC), Strain No. 7” value stood at 0.25 µg/mL.

For the compound `CONC(=O)CO/N=C(\C(=O)N[C@@H]1C(=O)N2[C@@H]1[S+](O)C[C@@H]1CC(=O)O[C@@]12C(=O)O)c1csc(N)n1` (stereo partly drawn) [Compound I-048], the MIC with E. coli SR09613 is 0.125 µg/mL; in the experiment on K. pneumoniae NCTC13443, 4 µg/mL; in the experiment on E. cloacae SR36276, 1 µg/mL; in the experiment on E. cloacae ATCC13047, 0.25 µg/mL; in the experiment with K. pneumoniae SR01453, 0.125 µg/mL; with E. coli SR09616 it was 0.5 µg/mL.

For the compound `Nc1nc(/C(=N/OCC(=O)NO)C(=O)N[C@@H]2C(=O)N3[C@@H]2[S+](O)C[C@@H]2CC(=O)O[C@@]23C(=O)O)cs1` (stereo partly drawn) [Compound I-049], the “minimum inhibitory concentration (MIC), Strain No. 6” value with E. coli SR09613 was determined as 0.063 µg/mL. Besides, the “minimum inhibitory concentration (MIC), Strain No. 4” value in the experiment on K. pneumoniae NCTC13443 turned out to be 2 µg/mL. Moreover, in the experiment on E. cloacae SR36276, the “minimum inhibitory concentration (MIC), Strain No. 5” value was found to be 0.5 µg/mL. The “minimum inhibitory concentration (MIC), Strain No. 1” value in the experiment with E. cloacae ATCC13047 was found to be 0.125 µg/mL. Also, the “minimum inhibitory concentration (MIC), Strain No. 3” value in the experiment with K. pneumoniae SR01453 worked out at 0.063 µg/mL. For the same compound, the “minimum inhibitory concentration (MIC), Strain No. 7” value in the experiment on E. coli SR09616 came out at 0.5 µg/mL.

Turning to `Nc1nc(/C(=N/OC[C@H](O)CO)C(=O)N[C@@H]2C(=O)N3[C@@H]2[S@@+]([O-])C[C@@H]2CC(=O)O[C@@]23C(=O)O)cs1` [Compound I-050], the MIC in the experiment with E. coli SR09613 is 0.5 µg/mL (≈ 0.966 µM); in the experiment on K. pneumoniae NCTC13443, 4 µg/mL (≈ 7.73 µM); with E. cloacae SR36276, 1 µg/mL (≈ 1.93 µM); in the experiment on E. cloacae ATCC13047, 0.5 µg/mL (≈ 0.966 µM); in the experiment with K. pneumoniae SR01453, 0.5 µg/mL (≈ 0.966 µM); in the experiment with E. coli SR09616, 4 µg/mL (≈ 7.73 µM).

As for `Nc1nc(/C(=N/OC(CO)CO)C(=O)N[C@@H]2C(=O)N3[C@@H]2[S@@+]([O-])C[C@@H]2CC(=O)O[C@@]23C(=O)O)cs1` [Compound I-052], the MIC is not above 0.031 µg/mL in the experiment on E. coli SR09613; 0.5 µg/mL (≈ 0.966 µM) with K. pneumoniae NCTC13443; 0.125 µg/mL (≈ 0.242 µM) in the experiment on E. cloacae SR36276; 0.063 µg/mL (≈ 0.122 µM) with E. cloacae ATCC13047; not above 0.031 µg/mL with K. pneumoniae SR01453; 0.063 µg/mL (≈ 0.122 µM) in the experiment with E. coli SR09616.

On to `NC(=O)NCCO/N=C(\C(=O)N[C@@H]1C(=O)N2[C@@H]1[S@@+]([O-])C[C@@H]1CC(=O)O[C@@]12C(=O)O)c1csc(N)n1` [Compound I-056], for which the MIC with E. coli SR09613 was found to be 0.5 µg/mL (≈ 0.944 µM); with E. cloacae SR36276, 2 µg/mL (≈ 3.78 µM); with E. cloacae ATCC13047, 0.5 µg/mL (≈ 0.944 µM); in the experiment with K. pneumoniae SR01453, 0.5 µg/mL (≈ 0.944 µM); with E. coli SR09616, 2 µg/mL (≈ 3.78 µM).

As for `Nc1nc(/C(=N/OCCO)C(=O)N[C@@H]2C(=O)N3[C@@H]2[S@@+]([O-])C[C@@H]2CC(=O)O[C@@]23C(=O)[O-])cs1.[Na+]` [Compound I-059], the MIC with K. pneumoniae NCTC13443 worked out at 1 µg/mL; in the experiment with K. pneumoniae SR01358, 0.5 µg/mL; in the experiment on E. cloacae SR36276 it was 0.25 µg/mL; with E. cloacae ATCC13047 it was 0.063 µg/mL; in the experiment with K. pneumoniae SR01453 it was 0.063 µg/mL.

In the case of `NC(=O)CO/N=C(\C(=O)N[C@@H]1C(=O)N2[C@@H]1[S@@+]([O-])C[C@@H]1CC(=O)O[C@@]12C(=O)[O-])c1csc(N)n1.[Na+]` [Compound I-060], the MIC in the experiment with K. pneumoniae NCTC13443 is 4 µg/mL; in the experiment with K. pneumoniae SR01358 it was 0.5 µg/mL; in the experiment with E. cloacae SR36276 it was 0.5 µg/mL; in the experiment on E. cloacae ATCC13047 it was 0.125 µg/mL; with K. pneumoniae SR01453, 0.125 µg/mL.

For the compound `Nc1nc(/C(=N/OCCC(=O)O)C(=O)N[C@@H]2C(=O)N3[C@@H]2[S@@+]([O-])C[C@@H]2CC(=O)O[C@@]23C(=O)[O-])cs1.[Na+]` [Compound I-061], the “minimum inhibitory concentration (MIC), Strain No. 4” value in the experiment with K. pneumoniae NCTC13443 worked out at 4 µg/mL. Also, the “minimum inhibitory concentration (MIC), Strain No. 2” value in the experiment with K. pneumoniae SR01358 was found to be 0.5 µg/mL. The “minimum inhibitory concentration (MIC), Strain No. 5” value in the experiment with E. cloacae SR36276 worked out at 0.25 µg/mL. Moreover, the “minimum inhibitory concentration (MIC), Strain No. 1” value in the experiment with E. cloacae ATCC13047 was 0.125 µg/mL. In addition, in the experiment on K. pneumoniae SR01453, the “minimum inhibitory concentration (MIC), Strain No. 3” value came to 0.25 µg/mL.

Regarding `CO/N=C(\C(=O)N[C@@H]1C(=O)N2[C@@H]1S(=O)(=O)C[C@@H]1CC(=O)O[C@@]12C(=O)[O-])c1csc(N)n1.[Na+]` [Compound I-070], the MIC in the experiment with K. pneumoniae NCTC13443 worked out at 4 µg/mL; in the experiment on K. pneumoniae SR01358, 1 µg/mL; in the experiment on E. cloacae SR36276, 4 µg/mL; in the experiment on E. cloacae ATCC13047, 1 µg/mL; with K. pneumoniae SR01453 it was 0.25 µg/mL.

`NCCO/N=C(\C(=O)N[C@@H]1C(=O)N2[C@@H]1[S@@+]([O-])C[C@@H]1CC(=O)O[C@@]12C(=O)O)c1csc(N)n1` [Compound I-072]: the MIC in the experiment on E. coli SR09613 and with E. coli SR09616 was 4 µg/mL (≈ 8.22 µM) throughout.
